Assays:
Type in all cases: organism-based
Parameters in all cases: scale not given: the % may be the effect or the level left
Solanum lycopersicum [1] = test: Phytotoxicity against Solanum lycopersicum (tomato) plant assessed as decrease in marketable yeild at 25 mg/L applied 1 days prior to transplantation for 10 secs measured after 4 weeks relative to untreated-control; settings: in vivo
Solanum lycopersicum [2] = test: Phytotoxicity against Solanum lycopersicum (tomato) plant assessed as decrease in vigour at 100 mg/L applied 1 days prior to transplantation for 10 secs measured after 2 weeks relative to untreated-control; settings: in vivo
Solanum lycopersicum [3] = test: Phytotoxicity against Solanum lycopersicum (tomato) plant assessed as decrease in vigour at 100 mg/L applied 1 days prior to transplantation for 10 secs measured after 4 weeks relative to untreated-control; settings: in vivo
Solanum lycopersicum [4] = test: Phytotoxicity against Solanum lycopersicum (tomato) plant assessed as decrease in vigour at 50 mg/L applied 1 days prior to transplantation for 10 secs measured after 4 weeks relative to untreated-control; settings: in vivo
Solanum lycopersicum [5] = test: Phytotoxicity against Solanum lycopersicum (tomato) plant assessed as decrease in vigour at 150 to 200 mg/L applied 1 days prior to transplantation for 10 secs measured after 4 weeks relative to untreated-control; settings: in vivo
Solanum lycopersicum [6] = test: Phytotoxicity against Solanum lycopersicum (tomato) plant assessed as decrease in vigour at 25 mg/L applied 1 days prior to transplantation for 10 secs measured after 4 weeks relative to untreated-control; settings: in vivo
Solanum lycopersicum [7] = test: Phytotoxicity against Solanum lycopersicum (tomato) plant assessed as decrease in plant height at 100 mg/L applied 1 days prior to transplantation for 10 secs measured after 4 weeks relative to untreated-control; settings: in vivo
Solanum lycopersicum [8] = test: Phytotoxicity against Solanum lycopersicum (tomato) plant assessed as decrease in plant height at 200 mg/L applied 1 days prior to transplantation for 10 secs measured after 4 weeks relative to untreated-control; settings: in vivo
Solanum lycopersicum [9] = test: Phytotoxicity against Solanum lycopersicum (tomato) plant assessed as decrease in plant height at 150 mg/L applied 1 days prior to transplantation for 10 secs measured after 4 weeks relative to untreated-control; settings: in vivo, other
Solanum lycopersicum [10] = test: Phytotoxicity against Solanum lycopersicum (tomato) plant assessed as decrease in marketable yeild at 150 mg/L applied 1 days prior to transplantation for 10 secs measured after 4 weeks relative to untreated-control; settings: in vivo
Solanum lycopersicum [11] = test: Phytotoxicity against Solanum lycopersicum (tomato) plant assessed as decrease in plant height at 25 mg/L applied 1 days prior to transplantation for 10 secs measured after 4 weeks relative to untreated-control; settings: in vivo
Solanum lycopersicum [12] = test: Phytotoxicity against Solanum lycopersicum (tomato) plant assessed as decrease in vigour at 25 mg/L applied 1 days prior to transplantation for 10 secs measured after 2 weeks relative to untreated-control; settings: in vivo

With `O=C(O)CNCP(=O)(O)O` [GLYPHOSATE] the Activity (Solanum lycopersicum [1]) was 41%, the Activity (Solanum lycopersicum [2]) was “<= 50%” and the Activity (Solanum lycopersicum [3]) was 58%. For the same molecule, the Activity (Solanum lycopersicum [4]) was 36%, the Activity (Solanum lycopersicum [5]) was “<= 15%” and the Activity (Solanum lycopersicum [6]) was 36%. It also gave an Activity (Solanum lycopersicum [7]) of 65%, an Activity (Solanum lycopersicum [8]) of 75% and an Activity (Solanum lycopersicum [9]) of 72%. For the same molecule, the Activity (Solanum lycopersicum [10]) was > 98%, the Activity (Solanum lycopersicum [11]) was 29% and the Activity (Solanum lycopersicum [12]) was 78%.
